Experimental data: PMC7792611, “The Delta-Specific Opioid Glycopeptide BBI-11008: CNS Penetration and Behavioral Analysis in a Preclinical Model of Levodopa-Induced Dyskinesia” (International Journal of Molecular Sciences, 2020)
Values joined by “and” are separate entries in the source; they are usually repeats but may differ in a detail not shown here. Identical values can stand only once. “Also recorded” adds a separate entry of the source. Like-named read-outs stand apart in the source and are kept apart here. Non-standard residues stand in square brackets, D forms with d. Residues, ends and D or L forms follow the SMILES beside them. *: point of attachment. βGlc = OC[C@H]1O[C@@H](*)[C@H](O)[C@@H](O)[C@@H]1O; Nle = CCCC[C@H](N)C(=O)O

What was measured:
[1] = In vivo microdialysis in the dorsolateral striatum with LC-MS; details: 10 mg/kg i.p., rat
Protocol: Adult male Sprague–Dawley rats (Harlan, Indianapolis, IN, USA) weighing between 250 and 350 g were used for all experiments (n = 6). Rats were housed in a temperature and humidity-controlled room with 12 h light/dark cycles with food and water available ad libitum. All animals were treated as approved by the University of Michigan Unit for Laboratory Animal Medicine (Protocol: 08516; approval date: 4 April 2011) and in accordance with the National Institute of Health (NIH) Guidelines for the Care and Use of Laboratory Animals. The number of animals used, and their suffering were minimized.
We performed in vivo microdialysis in the rat DLS and applied LC-MS analytical techniques to quantify brain concentrations of the deltorphin analogue BBI-11008, following systemic treatment, and of endogenous leu-enkephalin levels both before and after treatment. These experiments were performed in awake, freely moving rats, implanted with microdialysis probes in the DLS 24 h prior to the experiments. The animals were fully recovered, their wounds healed, and the probes were fixed in place with dental cement. The details of the microdialysis procedure to detect glycopeptides in the rat striatum has been described in detail in [27], with the following minor modifications: the concentric microdialysis probes were slightly larger at 3 mm, and the microdialysis probes were flushed at a lower flow rate of 0.7 µL/min.

human MOR = molecular target: T1, human MOR (Homo sapiens, UniProt P35372); test: Opioid receptor binding, inhibition of [3H]DAMGO binding to CHO cell membranes; details: for % Inhibition at MOR: 0.25 nM [3H]DAMGO
T1 construct: expressed in transfected cells

human DOR = molecular target: T2, human DOR (Homo sapiens, UniProt P41143); test: Opioid receptor binding, inhibition of [3H]naltrindole binding to CHO cell membranes; details: for % Inhibition at DOR: 0.2 nM [3H]naltrindole
T2 construct: expressed in transfected cells

human KOR = molecular target: T3, human KOR (Homo sapiens, UniProt P41145); test: Opioid receptor binding, [3H]U69593 binding to CHO cell membranes; details: 1 nM [3H]U69593; cells print % values
T3 construct: expressed in transfected cells
Protocol: Opioid Receptor Binding: Opioid receptor binding assays were performed as previously described. Membranes from CHO cells stably expressing either the human DOR, MOR, or KOR were used in the binding experiments. […] [^3H]U69593 at a concentration of 1 nM was used to measure binding to the KOR. […] BBI-11008 was chosen for further study.

[2] = system: L-DOPA-induced dyskinesia (LID) models; details: cited from earlier work
[3] = system: L-DOPA-induced abnormal involuntary movements in 6-OHDA-lesioned rats; test: L-DOPA-induced dyskinesia model in unilateral 6-OHDA-lesioned rats, AIMs scoring; type: in vivo, rat; details: MK-801 0.3 mg/kg i.p., 25 min prior to L-DOPA
Protocol: Male Sprague-Dawley rats (250 g; Harlan, Indianapolis, IN, USA), were housed in a temperature and humidity-controlled room with 12 h light/dark cycles with food and water available ad libitum. All animals were treated as approved by the Institutional Animal Care and Use Committee at the University of Arizona (Protocol number: 10-204; amendment approval date: 20 August 2012) and in accordance with the NIH Guidelines for the Care and Use of Laboratory Animals. The number of animals used, and their suffering were minimized.
All surgical procedures were performed as published in our prior work unless otherwise stated. […]
Rats showing ipsiversive rotations were selected and treated daily (i.p.) for 3 weeks with a combination of L-DOPA (7 mg/kg) and benserazide (14 mg/kg, MilliporeSigma). […] Baseline L-DOPA-induced LAO and locomotor AIMs (mean ± SEM) were determined over 3 testing sessions, before testing of the compounds was begun. […]
L-DOPA-induced AIMs were scored by an experimentally blinded investigator according to [57]. […] In order to quantify the severity of the AIMs, rats were observed individually in their standard cages every 20th min between 20 and 180 min after an injection of L-DOPA. […]

tail-withdrawal assay = details: mice, intravenous administration; ref Bilsky and Polt, personal communication; cited from earlier work

T1 sequence (P35372 whole entry): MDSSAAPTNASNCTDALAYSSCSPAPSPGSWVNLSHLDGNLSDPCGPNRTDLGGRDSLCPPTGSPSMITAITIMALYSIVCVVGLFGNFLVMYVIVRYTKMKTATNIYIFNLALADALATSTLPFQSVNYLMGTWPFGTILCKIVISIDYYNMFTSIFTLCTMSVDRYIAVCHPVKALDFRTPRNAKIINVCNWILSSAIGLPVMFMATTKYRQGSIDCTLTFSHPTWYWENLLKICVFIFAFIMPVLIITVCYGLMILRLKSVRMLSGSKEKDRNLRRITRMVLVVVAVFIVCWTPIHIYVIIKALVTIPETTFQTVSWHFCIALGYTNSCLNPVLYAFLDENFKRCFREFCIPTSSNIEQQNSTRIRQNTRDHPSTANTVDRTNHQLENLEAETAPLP
T2 sequence (P41143 whole entry): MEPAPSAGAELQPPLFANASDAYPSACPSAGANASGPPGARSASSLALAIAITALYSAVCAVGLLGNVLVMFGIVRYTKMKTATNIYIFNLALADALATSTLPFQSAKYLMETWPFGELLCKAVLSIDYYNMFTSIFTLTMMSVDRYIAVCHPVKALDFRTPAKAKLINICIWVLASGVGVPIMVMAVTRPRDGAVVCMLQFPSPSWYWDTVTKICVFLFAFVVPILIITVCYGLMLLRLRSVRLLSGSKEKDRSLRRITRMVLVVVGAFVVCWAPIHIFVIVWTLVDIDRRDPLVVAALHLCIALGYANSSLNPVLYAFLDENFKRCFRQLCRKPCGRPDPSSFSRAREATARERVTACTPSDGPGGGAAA
T3 sequence (P41145 whole entry): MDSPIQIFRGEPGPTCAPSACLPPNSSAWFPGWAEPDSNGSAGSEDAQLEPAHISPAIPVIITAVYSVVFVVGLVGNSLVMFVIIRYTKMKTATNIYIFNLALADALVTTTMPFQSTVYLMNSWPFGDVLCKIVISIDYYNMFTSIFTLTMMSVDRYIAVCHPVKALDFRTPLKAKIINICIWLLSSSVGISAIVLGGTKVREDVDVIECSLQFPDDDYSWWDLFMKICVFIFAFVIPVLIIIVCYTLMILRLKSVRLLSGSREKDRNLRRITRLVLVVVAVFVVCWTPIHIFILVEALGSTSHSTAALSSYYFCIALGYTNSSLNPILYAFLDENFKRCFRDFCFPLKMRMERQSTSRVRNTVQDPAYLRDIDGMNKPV

| Molecule | % Inhibition at MOR (human MOR; peptide 100 nM) | % Inhibition at MOR (human MOR; peptide 1 µM) | % Inhibition at DOR (human DOR; peptide 100 nM) | % Inhibition at DOR (human DOR; peptide 1 µM) | other results |
| --- | --- | --- | --- | --- | --- |
| CCCC[C@H](NC(=O)[C@H](CCC(=O)O)NC(=O)[C@H](Cc1ccccc1)NC(=O)[C@@H](C)NC(=O)[C@@H](N)Cc1ccc(O)cc1)C(=O)N[C@@H](CCCC)C(=O)N[C@H](C(N)=O)[C@@H](C)O[C@@H]1O[C@H](CO)[C@@H](O)[C@H](O)[C@H]1O [BBI-11008, H2N-YaFE-Nle-Nle-T-(β-D-Glc)] (H-Y[dA]FE[Nle][Nle]T(βGlc)-NH2) |  |  |  |  | peak BBI-11008 level relative to baseline endogenous leu-enkephalin [1]: 10 fold; peak BBI-11008 concentration in dorsolateral striatum dialysate ([1]; 10 min post-injection): 150 pM and > 150 pM; level at time molar at 1 h ([1]; male, Sprague-Dawley, in vivo, ip, 10 mg/kg, 60 min, read-out: striatal BBI-11008 concentration at 60 min post-injection (mean)): ~0.037 nM |
| CCCC[C@H](NC(=O)[C@H](CCC(=O)O)NC(=O)[C@H](Cc1ccccc1)NC(=O)[C@@H](C)NC(=O)[C@@H](N)Cc1ccc(O)cc1)C(=O)N[C@@H](CCCC)C(=O)N[C@H](C(N)=O)[C@@H](C)O [BBI-11009, H2N-YaFE-Nle-Nle-T] (H-Y[dA]FE[Nle][Nle]T-NH2) |  |  |  |  | Ki (human MOR): 510 nM; Ki (human DOR): 11 nM; % Inhibition at KOR (human KOR): 3.7% |
| CCN(CC)C(=O)c1ccc([C@H](c2cccc(O)c2)N2C[C@@H](C)N(Cc3cccc(F)c3)C[C@@H]2C)cc1 [DPI-289] |  |  |  |  | effect on LID ([2]; rodent and non-human primate LID models): anti-dyskinetic |
| C[C@]12N[C@H](Cc3ccccc31)c1ccccc12 [MK-801, Dizocilpine] |  |  |  |  | effect on L-DOPA-induced LAO AIMs [3]: reduced levodopa-induced LAO AIMs; also recorded: does reduce LAO-AIMs; also recorded: efficiently blocked LAO AIMs; ipsiversive pro-Parkinsonian locomotor activity [3]: worsened PD symptoms; also recorded: induces ipsiversive pro-Parkinsonian locomotor activity; also recorded: caused ipsiversive turns |
| CNC1(c2ccccc2Cl)CCCCC1=O (stereo not drawn) [ketamine] |  |  |  |  | effect on LID and Parkinsonism ([2]; sub-anesthetic treatment, rodent models): anti-dyskinetic and anti-Parkinsonian |
| Oc1ccc2c3c1O[C@H]1[C@@H](O)CC[C@@]4(O)[C@@H](C2)N(CC2CCC2)CC[C@]314 [nalbuphine] |  |  |  |  | effect on LID ([2]; dyskinetic non-human LID primates): reduce LID |
| CTAP |  |  |  |  | effect on LID ([2]; highly-selective MOR antagonists): did not reduce LID |
| H2N-YaFHLA-S(β-D-Glc) [BBI-11002] | 82% | 97% | 55% | 77% |  |
| H2N-YaFHLAT-(β-D-Glc) [BBI-11004] | 88% | 98% | 61% | 76% |  |
| H2N-YmFHLM-S(β-D-Glc) [BBI-11001] | 63% | 89% | 72% | 84% |  |
| H2N-YmFHLMT-(β-D-Glc) [BBI-11003] | 57% | 89% | 75% | 83% |  |
| Lactomorphin [MMP-2200] |  |  |  |  | effect on MK-801-induced pro-Parkinsonian activity ([2]; co-administration with MK-801, rodent LID model): attenuated the pro-Parkinsonian activity of MK-801 |
| YaFEVVG-CONH2 [deltorphin] |  |  |  |  | antinociceptive effect in the tail-withdrawal assay (tail-withdrawal assay): lacks this activity |
